# Source: patent US10975060B2, “High relaxivity gadolinium chelate compounds for use in magnetic resonance imaging” (BAYER PHARMA AKTIENGESELLSCHAFT, priority 2016, dated 2021)
# Entries after “also recorded” stand apart in the source; their conditions may differ.
# How the values were obtained:
# [1] = Relaxivity measurements at 1.4 T (MiniSpec mq60, 60 MHz, 37 °C) in water and human plasma; type: physicochemical; conditions: 1.41 T, normalized to Gd
# In short: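 T1 by inversion recovery and T2 by CPMG, relaxation delay ≥5×T1, at three Gd concentrations between 0.05 and 2 mM in water or fresh citrated human plasma. Relaxivities r1, r2 taken as slopes of relaxation rate versus Gd concentration, verified by ICP-MS.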
# [2] = Pharmacokinetic parameters of blood plasma levels after i.v. bolus in male rats (three compartment model); type: in vivo, rats (Han-Wistar)
# Procedure: Pharmacokinetic parameters of Example 6 were determined in male rats (Han-Wistar, 235-270 g, n=3). The compound was administered as a sterile aqueous solution (53.8 mmol Gd/L) as a bolus in the tail vein of the animals. The dose was 0.1 mmol Gd/kg. Blood was sampled 1, 3, 5, 10, 15, 30, 60, 90, 120, 240, 360, 480, and 1440 min post injection and the Gd concentration was determined by Inductively Coupled Plasma Mass Spectrometry (ICP-MS Agilent 7500a, Waldbronn, Germany). The blood level was converted to plasma concentrations by division by 0.625 (plasma fraction of rat blood, assuming strictly extracellular distribution). As a control, 3 animals (Han-Wistar, 248-289 g), were treated in the same way with Reference Compound 1 (Gadovist®), a low molecular weight contrast agent.
# The fit of the obtained data to a three compartment model (Phoenix-WinNonlin) yielded the pharmacokinetic parameters which are shown in Table 3.
# [3] = Water solubility (exploratory, 10 mM Tris-HCl, 20 °C); type: physicochemical; conditions: water (10 mM Tris-HCl buffer), pH 7.4
# Procedure: The exploratory water solubilities of the compounds were determined at room temperature (20° C.) in 0.5 mL buffer solution (10 mM Tris-HCl) in the microcentrifuge tubes (Eppendorf, 2.0 mL safe-lock caps). The solid compounds were added stepwise to the buffer solution. The suspension was mixed using a shaker (Heidolph Reax 2000) and treated 5 min in an ultrasound bath (Bandelin, Sonorex Super RK255H).
# [4] = Contrast-enhanced magnetic resonance angiography (CE-MRA) at 1.5 T, intraindividual comparison; type: in vivo, New Zealand white rabbits; conditions: rabbits
# Procedure: Reference compound 1 (Gadovist®), as an approved representative of the Gadolinium-based MRI contrast agents, was used in both dose protocols (100 μmol Gd/kg bw and 25 μmol Gd/kg bw) and compared to example compound 6 (25 μmol Gd/kg bw).
# The contrast-enhanced magnetic resonance angiography study was performed at a clinical 1.5 T Scanner (Magnetom Avanto Fit, Siemens Healthcare, Erlangen, Germany). For optimal signal exploitation, a spine in combination with a body-flex coil was used for the data acquisition. The study was performed on male New Zealand white rabbits (weight 3.6-3.9 kg, n=4, Charles River Kisslegg). The animals received all 3 contrast protocols within one imaging session. The order of the contrast protocols was randomized between the animals.
# All animals are initially anesthetized using a body weight-adjusted intramuscular injection of a mixture (1+2) of xylazine hydrochloride (20 mg/mL, Rompun 2%, Bayer Vital GmbH, Leverkusen, Germany) and ketamine hydrochloride (100 mg/mL, Ketavet, Pfizer, Pharmacia GmbH, Berlin, Germany) using 1 mL/kg body weight. The continuous anesthesia of the intubated animals (endotracheal tube, Rueschelit Super Safe Clear, cuff 3.0 mm, Willy Ruesch A G, Kernen, Germany) is achieved by the intravenous injection of 0.9 mg propofol per kilogram per hour (10 mg/mL, Propofol-Lipuro 1%, B. Braun Melsungen A G, Melsungen, Germany). The continuous intravenous injection is performed using a MR infusion system (Continuum MR Infusion System, Medrad Europe B. V., A E Beek, Germany). The tracheal respiration (SV 900C, Maquet, Rastatt, Germany) is performed with 55% oxygen, forty breaths per minute, and a breathing volume of 4 mL per kilogram body weight per minute.
# Based on a localizer MRI sequence oriented in coronal, axial, and sagittal directions the anatomic course of the aorta is acquired. A small intravenous test bolus (0.2 mL, Reference compound 1 followed by 1.3 mL saline) was administered to determine the time to peak interval (descending aorta) using a test bolus sequence. The MRA delay time between the start of the contrast injection and the start of image acquisition was calculated by subtracting the time to k-space center from the time to peak interval. For MRA a 3D FLASH sequence (TR=3.3 ms, TE=1.2 ms, flip=25°) was acquired before and after injection of the contrast agent considering the delay time. Both measurements were performed within expiratory breath hold. The time interval for the intraindividual comparison between the different contrast agent applications was twenty to thirty minutes.
# Quantitative image evaluation was performed on the subtraction images (post contrast—baseline). […]
# [5] = Dynamic CT diffusion phantom study (dialysis cassette in fetal bovine serum); type: physicochemical; conditions: dialysis cassette 20,000 MWCO, 20 mmol Gd/L, CT signal over 30 h
# In short: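 Contrast agent at 20 mmol Gd/L in a 20 kDa MWCO dialysis cassette was placed in fetal bovine serum. Diffusion was followed by clinical CT at 100 kV and 104 mA at time points from 0 min to 30 h. Regions of interest were drawn on one central 2.4 mm slice per time point.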
# [6] = Relaxivity measurements at 3.0 T (whole body MRI scanner, 37 °C) in water and human plasma; type: physicochemical; conditions: normalized to Gd, average ± standard deviation
# In short: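 T1 relaxivity measured on a 3.0 T whole-body MRI scanner at 37 °C in water and fresh citrated human plasma; inversion-recovery sequence, TE 7.46 ms, TIs 50–4500 ms. Three concentrations per compound between 0.05 and 2 mM; ri derived from slope of Ri versus Gd-normalised concentration.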
# [7] = Chemical stability: autoclaving at 121 °C for 20 min in 10 mM Tris-HCl pH 7.4, HPLC-ICP-MS; type: physicochemical; conditions: 5 mmol Gd/L in 10 mM Tris-HCl pH 7.4, 121 °C
# Procedure: The aliquot removed before and after autoclaving was analyzed by HPLC-ICP-MS to determine the integrity of the compound.
# HPLC: Column: Hypercarb 2.5 mm×15 cm. Solvent A: 0.1% formic acid in water. Solvent B: acetonitrile. Gradient from 100% A to 5% A+95% B in 10 min. Flow 1 ml/min. Detection by ICP-MS, tuned to ^158Gd. The chromatograms, displaying the intensity of the detected Gd, were visually compared. No changes in the chromatograms before and after autoclaving were detected. The compound was stable during the autoclaving procedure.
# [8] = Gd-complex stabilities in human plasma at 37 °C, 15 d (released Gd3+ by HPLC-ICP-MS); type: in vitro ADME
# Procedure: Gd-Complex Stabilities in Human Plasma at 37° C., 15 d
# Example 1 was separately dissolved in human plasma at 1 mmol Gd/L. As a reference for released Gd^3+ 0.1 mmol/L Gadolinium chloride (GdCl3) was dissolved in human plasma. The plasma samples were incubated for 15 days at 37° C. under 5% CO2 atmosphere to maintain the pH at 7.4. Aliquots were taken at the start and end of the incubation. The amount of Gd^3+ released from the complexes was determined by HPLC-ICP-MS. Column: Chelating Sepharose (HiTrap, 1 mL). Solvent A: 10 mM BisTris-HCl pH 6.0. Solvent B: 15 mM HNO3. Gradient: 3 min at 100% A, from 3 to 10 min at 100% B. Flow 1 mL/min. Detection by ICP-MS, tuned to ^158Gd. The chromatograms, displaying the intensity of the detected Gd, were evaluated by peak area analysis. The size of the peak of Gd^3+, eluting after the change from solvent A to B, was recorded. For Example 1 the increase of this peak and thus the release of Gd^3 after 15 days was below the limit of quantification (<0.1% of the injected total amount of Gadolinium). Example 1 is stable under physiological conditions.
# [9] = i.v. bolus 0.1 mmol Gd/kg, mean, n=3
# [10] = subtraction images, carotid artery, aorta, renal arteries
smiles,measurement,setting,value
"CC(C)CN(CC(=O)NCC(CNC(=O)CN(CC(C)C)C(=O)CN1CCN(CC(=O)[O-])CCN(CC(=O)[O-])CCN(CC(=O)[O-])CC1)(CNC(=O)CN(CC(C)C)C(=O)CN1CCN(CC(=O)[O-])CCN(CC(=O)[O-])CCN(CC(=O)[O-])CC1)CNC(=O)CN(CC(C)C)C(=O)CN1CCN(CC(=O)[O-])CCN(CC(=O)[O-])CCN(CC(=O)[O-])CC1)C(=O)CN1CCN(CC(=O)[O-])CCN(CC(=O)[O-])CCN(CC(=O)[O-])CC1.[Gd+3].[Gd+3].[Gd+3].[Gd+3] [Example 6, Tetragadolinium {4,10-bis(carboxylatomethyl)-7-[3-isobutyl-8,8-bis({[(isobutyl{[4,7,10-tris(carboxylatomethyl)-1,4,7,10-tetraazacyclododecan-1-yl]acetyl}amino)acetyl]-amino}methyl)-15-methyl-2,5,11-trioxo-13-{[4,7,10-tris(carboxylatomethyl)-1,4,7,10-tetraazacyclododecan-1-yl]acetyl}-3,6,10,13-tetraazahexadec-1-yl]-1,4,7,10-tetraaza-cyclododecan-1-yl}acetate]",r1 human plasma,[1],14.1 L/mmol/s
same,r1 water,[1],11.6 L/mmol/s
same,pharmacokinetic compared to that of the reference compound 1,[2]; 0.1 mmol Gd/kg i.v.,very similar
same,AUC∞ Area under the curve (to infinity),[2]; [9],10801 µmol·min/L
same,MRT Mean residence time,[2]; [9],40.7 min
same,"V1 + V2 Volume, compartments V1 + V2",[2]; [9],0.14 L/kg
same,"V2 Volume, compartment V2",[2]; [9],0.12 L/kg
same,"Vd, ss Volume of distribution at steady state",[2]; [9],0.27 L/kg
same,"t½ α Half-life, compartment V1",[2]; [9],2.45 min
same,"t½ β Half-life, compartment V2",[2]; [9],22.4 min
same,"t½ γ Half-life, compartment V3",[2]; [9],1041 min
same,Solubility,[3],>1000 mg/100 mL
same,"vascular contrast (MR-angiograms, qualitative) at 25 μmol/kg compared to reference compound 1 at 100 μmol/kg",[4]; example compound 6 at 25 μmol Gd/kg bw,No qualitative difference
same,"signal enhancement at vascular regions, 25 μmol/kg compared to reference compound 1 at reduced (identical) dose (25 μmol/kg)",[4]; [10],significantly (p<0.001) higher
same,"signal enhancement at vascular regions, 25 μmol/kg compared to reference compound 1 at standard dose (100 μmol/kg)",[4]; [10],No significant difference; also recorded: similar
same,Diffusion half-live (20 kDa),[5],15.0 h
"CN(CC(=O)NCC(CNC(=O)CN(C)C(=O)CN1CCN(CC(=O)[O-])CCN(CC(=O)[O-])CCN(CC(=O)[O-])CC1)(CNC(=O)CN(C)C(=O)CN1CCN(CC(=O)[O-])CCN(CC(=O)[O-])CCN(CC(=O)[O-])CC1)CNC(=O)CN(C)C(=O)CN1CCN(CC(=O)[O-])CCN(CC(=O)[O-])CCN(CC(=O)[O-])CC1)C(=O)CN1CCN(CC(=O)[O-])CCN(CC(=O)[O-])CCN(CC(=O)[O-])CC1.[Gd+3].[Gd+3].[Gd+3].[Gd+3] [Example 1, Tetragadolinium [4,10-bis(carboxylatomethyl)-7-{3,13-dimethyl-8,8-bis({[(methyl{[4,7,10-tris(carboxylatomethyl)-1,4,7,10-tetraazacyclododecan-1-yl]acetyl}amino)-acetyl]amino}methyl)-2,5,11,14-tetraoxo-15-[4,7,10-tris(carboxylatomethyl)-1,4,7,10-tetraazacyclododecan-1-yl]-3,6,10,13-tetraazapentadec-1-yl}-1,4,7,10-tetraazacyclo-dodecan-1-yl]acetate]",r1 human plasma,[1],11.7 L/mmol/s
same,r1 water,[1],10.1 L/mmol/s
same,r1 human plasma,[6]; human plasma,10.3 ± 0.2 L/mmol/s
same,r1 water,[6]; water,9.1 ± 0.1 L/mmol/s
same,appearance of the solution after autoclaving,[7],clear and colorless
same,changes in the chromatograms (HPLC-ICP-MS) before and after autoclaving,[7],No changes
same,stability during the autoclaving procedure,[7],stable
same,release of Gd3+ after 15 days,"[8]; 1 mmol Gd/L, pH 7.4, below the limit of quantification",< 0.1 % of the injected total amount of Gadolinium
same,stability under physiological conditions,[8]; 15 days,stable
same,Solubility,[3],>1000 mg/100 mL
same,Diffusion half-live (20 kDa),[5],10.4 h
